PMC9687805 (Biomolecules, 2022)

What was measured:
porcine liver CES [1] = tested on: porcine liver CES; design: method as in PMID 33831780; settings: cited from earlier work
[2] = design: method as in PMID 33831780; settings: cited from earlier work
equine serum BChE [3] = molecular target: T1, equine serum BChE (Equus caballus, UniProt P81908); test: Kinetic study of BChE inhibition (Lineweaver-Burk); type: biochemical
T1 construct: purchased Sigma-Aldrich; host or cells: equine serum
Method: (§1) Mechanisms of human erythrocyte AChE and equine serum BChE inhibition were assessed via a thorough analysis of enzyme kinetics. Residual activity was measured following 5 min incubation at 25 °C with three increasing concentrations of inhibitor and six decreasing substrate concentrations.

porcine liver CES [4] = test: CES inhibition, 4-nitrophenyl acetate hydrolysis; settings: compound 20 μM; mean ± SEM, n = 3; n.a. = not active
Method: Final enzyme and substrate (4-nitrophenyl acetate) concentrations were 0.02 unit/mL and 1 mM, respectively. Assays were carried out with a blank containing all constituents except porcine CES to assess non-enzymatic hydrolysis. Measurements were performed with a FLUOStar Optima microplate reader (BMG Labtech, Ortenberg, Germany). Compounds were dissolved in DMSO; the incubation mixture contained 2% (v/v) solvent. The primary evaluation of the inhibitory activity of the compounds was performed by determining the degree of the enzyme inhibition at a compound concentration of 20 µM. For this, a sample of the corresponding enzyme was incubated with the test compound for 5 min; then the enzyme residual activity was determined. Each experiment was performed in triplicate. […] Substrate was then added and residual enzyme activity relative to an inhibitor-free control was measured using a FLUOStar Optima microplate reader.

[5] = ABTS radical cation scavenging activity assay; design: key to ABTS•+-scavenging activity, TEAC: ratio of slopes, tested compound vs Trolox (Trolox = 1); settings: n=3, 1 h, 30 °C
Method: Radical scavenging activity of the compounds was evaluated by the ABTS radical cation (ABTS^•+) scavenging assay showing the ability of the compounds to decolorize the ABTS^•+ solution [86] with some modifications. Trolox was used as the antioxidant standard; ascorbic acid was used as the comparison compound. All tested compounds and standards were dissolved in DMSO.
The solution of ABTS^•+ was produced by mixing 7 mM ABTS aqueous solution with 2.45 mM potassium persulfate aqueous solution in equal quantities and allowing them to react for 12–16 h at room temperature in the dark. Radical scavenging capacity of the compounds was analyzed by mixing 10 µL of compound with 240 µL of ABTS^•+ working solution in ethanol (100 µM final concentration), and after 1 h of incubation at 30 °C the decrease in absorbance was measured spectrophotometrically at 734 nm using a Bio-Rad xMark microplate UV/VIS spectrophotometer (Bio-Rad, Hercules, CA, USA). The compounds were tested in the concentration range 5 × 10^−7–1 × 10^−4 M. Ethanol blanks were run in each assay. Values were obtained from five replicates of each sample and three independent experiments.
Antioxidant activity was reported as Trolox equivalent antioxidant capacity (TEAC values), consisting of the ratio between the slopes obtained from the linear correlation for concentrations of the tested compounds and Trolox with absorbance of ABTS radical. […] The calculations were carried out using Origin 6.1 for Windows (OriginLab, Northampton, MA, USA). Results are presented as mean ± SEM calculated using GraphPad Prism version 6.05 for Windows, GraphPad Software (San Diego, CA, USA).

equine serum BChE [6] = molecular target: T1, equine serum BChE; test: biochemical; settings: equine serum BChE; 5 min incubation, 25 °C, pH 7.5; mean ± SEM, n = 3; read-out: Inhibitory activity against BChE, IC50
Method: (§2) The assay solution consisted of 0.1 M K/Na phosphate buffer pH 7.5, 25 °C, 0.33 mM DTNB, 0.02 unit/mL AChE or BChE, and 1 mM substrate (ATCh or BTCh, respectively). Reagent blanks consisted of reaction mixtures without substrates.
(§3) Each experiment was performed in triplicate.

Human erythrocyte AChE [7] = molecular target: T2, Human erythrocyte AChE (Homo sapiens, UniProt P22303); test: biochemical; settings: human erythrocyte AChE; 5 min incubation, 25 °C, pH 7.5; mean ± SEM, n = 3; read-out: Inhibitory activity against AChE, IC50
T2 construct: purchased Sigma-Aldrich; host or cells: human erythrocytes
Method: as §2, §3

Human erythrocyte AChE [8] = molecular target: T2, Human erythrocyte AChE; test: Kinetic study of AChE inhibition (Lineweaver-Burk); type: biochemical
Method: as §1

[9] = Ferric reducing antioxidant power (FRAP) assay; settings: Trolox equivalents; n=3, 1 h, 37 °C; mean ± SEM
Method: The FRAP (Ferric Reducing Antioxidant Power) assay measures the ability of antioxidants to reduce the ferric 2,4,6-tripyridyl-s-triazine complex [Fe(TPTZ)2]^3+ to the intensely blue-colored ferrous complex [Fe(TPTZ)2]^2+ with an absorption maximum at λ = 593 nm. The reducing ability of a compound is an indicator of its potential antioxidant activity.
The ferric reducing ability of the compounds was determined by a previously described method as a microplate-adapted version described in [42]. 2,4,6-tris(pyridin-2-yl)-1,3,5-triazine (TPTZ), FeCl3·6H2O, Trolox, ascorbic acid and DMSO were obtained from Sigma-Aldrich Chemical Co (St. Louis, MO, USA). The FRAP reagent was prepared by mixing acetate buffer (0.3 M, pH 3.6), TPTZ (10 mM in 40 mM HCl) and FeCl3·6H2O (20 mM in distilled water) in a ratio of 10:1:1 immediately before use. Compounds were dissolved in DMSO and tested in the concentration range of 1×10^−6–1×10^−4 M. The solvent content in the reaction mixture was 4% (v/v). The test compounds (10 µL) were added to the FRAP reagent solution (240 µL) and mixed thoroughly. The reaction was carried out at 37 °C in the dark, the incubation time was 1 h. The absorbance at 600 nm was monitored spectrophotometrically by a FLUOStar OPTIMA microplate reader (BMG Labtech, Germany) at 37 °C. Trolox was used as a standard antioxidant, ascorbic acid as a reference compound. Values were obtained from four replicates of each sample and three independent experiments.
The ferric reducing ability of compounds was expressed as TE units (antioxidant activity in Trolox equivalent) with the values calculated as the ratio of the concentrations of Trolox and the test compound resulting in the same effect.

EeAChE PAS = molecular target: T3, EeAChE PAS (Electrophorus electricus, UniProt O42275); test: biochemical; type: binding; settings: 0.25 h; compound 20 μM, EeAChE 7 μM, propidium iodide 8 μM; n.a. = not active; read-out: % Displacement of Propidium from the EeAChE PAS at 20 μM
T3 construct: purchased Sigma-Aldrich type VI-S; host or cells: electric eel
Method: Electrophorus electricus (EeAChE) (electric eel, type VI-S, lyophilized powder, Sigma-Aldrich, St. Louis, MO, USA) was used owing to its high degree of purification, high activity, and lower cost than human AChE (hAChE). […] To determine the degree of displacement (% displacement) of propidium from the PAS of AChE, EeAChE (final concentration, 7 μM) was incubated with the test compound at a concentration of 20 μM in 1 mM Tris-HCl buffer pH 8.0, 25 °C, for 15 min. Then, propidium iodide solution (final concentration, 8 μM) was added, the samples were incubated for 15 min, and the fluorescence spectrum (530 nm (excitation) and 600 nm (emission)) was taken. […] The blank contained propidium iodide of the same concentration in 1 mM Tris-HCl buffer, pH 8.0 at 25 °C. The measurements were carried out in triplicate on a FLUOStar Optima microplate reader (LabTech, Ortenberg, Germany), and the results were calculated by the following formula:% Displacement = 100 − (IFAChE + Propidium + inhibitor / IFAChE + Propidium) × 100 (1) where IFAChE + Propidium is the fluorescence intensity of the propidium associated with AChE in the absence of the test compound (taken as 100%), and IFAChE + Propidium + inhibitor is the fluorescence intensity of the propidium associated with AChE in the presence of the test compound.

[10] = Lineweaver-Burk plot, changes in Km and Vmax

T1 sequence (P81908 whole entry): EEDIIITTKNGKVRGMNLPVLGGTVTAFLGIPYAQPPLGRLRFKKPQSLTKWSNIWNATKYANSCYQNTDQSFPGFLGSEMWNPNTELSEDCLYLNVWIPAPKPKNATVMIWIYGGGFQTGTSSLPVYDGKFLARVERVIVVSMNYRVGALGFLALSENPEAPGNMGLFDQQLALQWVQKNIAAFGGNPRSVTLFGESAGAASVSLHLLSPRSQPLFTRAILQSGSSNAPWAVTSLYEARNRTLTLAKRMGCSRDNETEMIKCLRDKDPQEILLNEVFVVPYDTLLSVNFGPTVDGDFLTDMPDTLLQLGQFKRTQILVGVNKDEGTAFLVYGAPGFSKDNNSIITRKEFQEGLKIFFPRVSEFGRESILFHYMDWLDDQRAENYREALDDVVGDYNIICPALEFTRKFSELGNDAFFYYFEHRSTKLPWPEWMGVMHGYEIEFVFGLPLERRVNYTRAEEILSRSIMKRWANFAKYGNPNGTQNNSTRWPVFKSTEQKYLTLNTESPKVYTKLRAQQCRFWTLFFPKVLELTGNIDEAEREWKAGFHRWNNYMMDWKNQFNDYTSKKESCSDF
T2 sequence (P22303 32-617 isoform P22303-2 limits assumed): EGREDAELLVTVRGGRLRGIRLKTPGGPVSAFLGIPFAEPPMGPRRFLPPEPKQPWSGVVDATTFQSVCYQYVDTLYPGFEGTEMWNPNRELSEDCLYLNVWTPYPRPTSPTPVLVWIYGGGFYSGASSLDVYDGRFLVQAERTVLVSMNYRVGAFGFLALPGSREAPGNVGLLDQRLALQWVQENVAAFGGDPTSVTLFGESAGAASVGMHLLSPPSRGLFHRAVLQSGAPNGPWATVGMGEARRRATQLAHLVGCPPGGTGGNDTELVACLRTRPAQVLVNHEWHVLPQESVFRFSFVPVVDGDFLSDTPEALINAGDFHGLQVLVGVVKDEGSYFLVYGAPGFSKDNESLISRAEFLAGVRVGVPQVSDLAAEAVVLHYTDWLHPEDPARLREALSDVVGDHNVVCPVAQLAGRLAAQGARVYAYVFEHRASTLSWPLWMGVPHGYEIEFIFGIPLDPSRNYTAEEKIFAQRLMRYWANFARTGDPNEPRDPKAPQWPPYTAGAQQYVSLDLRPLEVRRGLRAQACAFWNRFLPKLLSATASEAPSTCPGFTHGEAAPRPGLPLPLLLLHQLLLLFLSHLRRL
T3 sequence (O42275 24-633): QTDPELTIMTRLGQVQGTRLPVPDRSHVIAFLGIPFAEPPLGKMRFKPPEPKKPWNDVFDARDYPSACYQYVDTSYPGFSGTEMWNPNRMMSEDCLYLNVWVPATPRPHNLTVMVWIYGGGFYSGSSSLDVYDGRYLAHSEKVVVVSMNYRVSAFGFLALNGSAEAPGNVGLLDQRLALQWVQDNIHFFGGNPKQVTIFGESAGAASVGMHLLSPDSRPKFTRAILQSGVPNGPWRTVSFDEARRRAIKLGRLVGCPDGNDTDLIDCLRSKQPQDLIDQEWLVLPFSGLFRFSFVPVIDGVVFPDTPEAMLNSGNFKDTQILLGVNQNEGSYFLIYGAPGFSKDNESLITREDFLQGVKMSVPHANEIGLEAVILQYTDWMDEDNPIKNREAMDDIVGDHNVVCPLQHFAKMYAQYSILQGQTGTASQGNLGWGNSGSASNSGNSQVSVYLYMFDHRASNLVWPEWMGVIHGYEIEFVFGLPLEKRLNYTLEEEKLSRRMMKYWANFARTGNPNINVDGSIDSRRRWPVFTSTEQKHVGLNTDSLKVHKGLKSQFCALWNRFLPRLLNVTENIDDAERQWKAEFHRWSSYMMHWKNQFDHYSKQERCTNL

SMILES | inhibitory activity against CES (porcine liver CES [1]) | radical-scavenging activity in the ABTS assay [2] | Type of BChE inhibition (equine serum BChE [3]; [10]) | αKi (noncompetitive component), BChE (equine serum BChE [3]; mixed type inhibition) [µM] | Ki (equine serum BChE [3]; mixed type inhibition, read-out: Ki (competitive component), BChE) [µM] | Inhibitory activity against CES, % inhibition at 20 μM (porcine liver CES [4]) [%] | ABTS•+-scavenging activity, TEAC ([5]; Trolox equivalent antioxidant capacity, mean ± SEM) | IC50 ([5]; concentration for 50% reduction of ABTS radical cation) [µM] | IC50 (equine serum BChE [6]) [µM] | IC50 (Human erythrocyte AChE [7]) [µM] | Type of AChE inhibition (Human erythrocyte AChE [8]; [10]) | αKi (noncompetitive component), AChE (Human erythrocyte AChE [8]; mixed type inhibition) [µM] | Ki (Human erythrocyte AChE [8]; mixed type inhibition, read-out: Ki (competitive component), AChE) [µM] | FRAP (Fe3+-reducing activity), TE [9] | inhibition at 20 µM (EeAChE PAS) [%]
CC(=O)C(=NNc1ccc(C)cc1)C(=O)C(F)(F)F [1c, 1,1,1-trifluoro-3-[2-(4-methylphenyl)hydrazinylidene]pentane-2,4-dione] | moderate inhibitory activity | high radical-scavenging activity | – | – | – | – | – | – | – | – | – | – | – | – | –
Cc1ccc(NN=C(C(=O)c2ccccc2)C(=O)C(F)(F)F)cc1 [1d, 4,4,4-trifluoro-2-[2-(4-methylphenyl)hydrazinylidene]-1-phenylbutane-1,3-dione] | – | high radical-scavenging activity | – | – | – | – | – | – | – | – | – | – | – | – | –
CC(=O)C(/N=N/c1ccc(C)cc1)=C(\C)NCCCCCCNc1c2c(nc3ccccc13)CCCC2 [6b] | – | – | mixed type of inhibition | 0.224 ± 0.022 | 0.095 ± 0.008 | 29.0 ± 0.1 | 1.00 ± 0.02 | 18.6 ± 1.4 | 0.138 ± 0.002 | 0.342 ± 0.015 | mixed type of inhibition | 0.473 ± 0.041 | 0.254 ± 0.018 | 0.48 ± 0.04 | 19 ± 1.3
